The values below come from PubChem BioAssay AID624491 (Broad Institute, 2012).

This test concerns D54 ERlucT glycosylation luciferase reporter, luminescence, 24 h. As to the kind of experiment: blockers of NLG process in reporter cells – D54 ERlucT cells, luminescence, cherry-picks, dose response (AID 624491).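 Further: signal gain reflects blocked N-linked glycosylation of a luciferase reporter; actives raise luciferase signal so AC26 marks activators of the reporter.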

Regarding `COc1ccc2c(c1)[C@H]1[C@H](CO2)[C@H](c2ccccc2)[C@]2(C)C(=O)Nc3ccc(F)cc3C(=O)N12`, the AC26 is 568 nM.

With `Cc1[nH][nH]c(=O)c1C(c1ccc(-c2ccc(F)cc2)o1)c1c(C)[nH][nH]c1=O`, the AC26 is 4090 nM. With `CN(C)CCNc1ccc2nnn3c4ccc(O)cc4c(=O)c1c23` the figure was 52 nM; with `COc1ccc2c(c1)OC[C@H]1[C@H]2N2C(=O)c3ccc(C)cc3NC(=O)[C@@]2(C)[C@H]1c1ccccc1`, 926 nM; with `COc1ccc(-c2ccc(C(c3c(C)[nH][nH]c3=O)c3c(C)[nH][nH]c3=O)o2)c([N+](=O)[O-])c1`, 224 nM.

As for `COc1ccc(C2=NOC(C(=O)NCc3ccc(F)cc3)C2)cc1OC` (stereo not drawn), the AC26 was 4460 nM. Next, `Cc1cccc2cc(/C=C/C(=O)c3ccco3)c(Cl)nc12`: 3830 nM. With `Nc1cccc2c1C(=O)N(C(=O)/C=C/c1ccc(F)cc1)C2=O` the figure was 6790 nM; with `OCCCN=c1cc(-c2ccccc2)oc2ccc(Cl)cc12`, 978 nM. As to `COc1cc(-c2nccc3cc4c(cc23)OCO4)cc(OC)c1OC`, the AC26 is 1490 nM. With `COc1cc(C(=O)NC2CCN(C)CC2)ccc1Nc1ncc2c(n1)N(C1CCCCC1)CCC(=O)N2C` the figure was 11.3 nM. As for `Cc1ccccc1OCCOC(=O)c1c(-c2ccccc2)noc1C`, the AC26 was 8510 nM. With `COc1cccc(/C=N/NC(=O)c2ccc(N3CCCC3=O)cc2)c1`, the AC26 was 3350 nM. Next, `Cc1cc2c(cc(C(=O)OCC(=O)NCc3cccs3)n2C(C)C)o1`: 1740 nM; `Cc1cccn2c(=O)c3cc(C(=O)NC4CCCC4)c(=N)n(CCc4ccccc4)c3nc12`: 1280 nM; `Cn1c(=O)cc(OCCCC(=O)Nc2ccc3c(c2)OCCO3)c2ccccc21`: 3060 nM.

With `CCn1c2ccccc2c2cc(NC(=O)COC(=O)c3ccccc3F)ccc21`, the AC26 was 4200 nM. With `CCCCCCC(=O)N(O)C1CC(=O)N(Cc2ccccc2)C1=O` (stereo not drawn) the figure was 6200 nM. Take `COCCCNC(=O)c1sc2ncn(CC(=O)Nc3ccc(C)c(Cl)c3)c(=O)c2c1C`: the AC26 was 1380 nM. Take `O=C(/C=C/c1ccco1)Nc1nnc(-c2ccco2)s1`: the AC26 was 310 nM. Next, `O=c1[nH]c(-c2ccccc2)nc2sc(-c3ccccc3)cc12`: 2320 nM.

In the case of `Cc1nn(C(C)(C)C)c(OC(=O)c2ccc3c(c2)OCO3)c1Sc1ccccc1`, the AC26 was 3070 nM. With `CN(C)CCc1cc2c(c3c1ccc1ccccc13)OCO2` the figure was 5320 nM; with `Cc1cc(C)c2nc3nc(C)c(C)cc3c(N)c2c1`, 998 nM. With `OCC1OC(n2ccc3c(SCc4ccccc4)ncnc32)C(O)C1O` (stereo not drawn) the figure was 332 nM; with `COc1ccc2sc3cccc(NCCN(C)C)c3c(=O)c2c1`, 4530 nM; with `Cc1c(C(=O)Nc2ccc3oc(-c4cccnc4)nc3c2)oc2ccccc12`, 8840 nM.

`O=C(N/N=C/c1cccnc1)c1cc(-c2ccccc2OCc2ccccc2)n[nH]1`: the AC26 is 1890 nM. Next, `COc1cc(-c2nc(-c3ccccc3)c(-c3cccs3)[nH]2)cc(OC)c1O`: 6100 nM; `COc1ccc(S(=O)(=O)NCc2ccccn2)cc1NC(=O)c1ccccc1C`: 2690 nM; `COc1cc2c(cc1OC)C(=O)N1[C@H]3c4ccccc4OC[C@@H]3[C@H](c3ccccc3)[C@]1(C)C(=O)N2`: 42.6 nM. With `O=C(N/N=C/c1ccco1)c1ccccc1OCc1ccccc1Cl` the figure was 1010 nM; with `CCc1ccc(OCC(=O)Nc2ccc(-c3cc4ccccc4oc3=O)c(OC)c2)cc1`, 3090 nM. Regarding `O=C(NCCCn1ccnc1)c1cc(-c2ccccc2)on1`, the AC26 is 3170 nM.

Regarding `CCOc1ccc(NC(=O)c2cc(OC)nc3ccccc23)cc1`, the AC26 is 284 nM. For `CC(=O)C1=C(C)OC(N)=C(C#N)C1c1cc([N+](=O)[O-])ccc1Cl` (stereo not drawn), the AC26 is 2900 nM. Next, `COc1cc(OC)cc(C(=O)N2CC(=O)Nc3ccccc32)c1`: 565 nM; `Cc1cc(=O)oc2cc(NC(=O)c3cccc(S(C)(=O)=O)c3)ccc12`: 2310 nM.
